Earlier results on six compounds are cited in patent US20010012851A1, “NITRIC OXIDE RELEASING OXINDOLE PRODRUGS FOR ANAGESIC, ANTI-INFLAMMATORY AND DISEASE-MODIFYING USE” (priority 1999, published 2001).

The conditions of series [1]: animal models of acute and chronic inflammation; versus parent NSAID.
For series [2] the following is noted: acute and chronic administration; versus parent NSAID.
The conditions of series [3]: rat; for healing of experimental gastric ulcers (healing rate): daily treatment, Elliott et al. 1995.
For series [4] the following is noted: rat.

On to `O=C(Cc1ccccc1Nc1c(Cl)cccc1Cl)OCCCCO[N+](=O)[O-]` [diclofenac nitroxybutylester, diclofenac-4-nitroxybutylester], for which, in series [1], the anti-inflammatory activity entry is “comparable to that of their parent NSAIDs”. Besides, in series [2], the gastric injury result is “markedly less gastric injury”. Further, the “healing of experimental gastric ulcers (healing rate)” value (“healing … (healing rate)” for short) in series [3] is given as “accelerated”.
Turning to `O=C(O)Cc1ccccc1Nc1c(Cl)cccc1Cl` [diclofenac], in series [3], the “healing … (healing rate)” value is recorded as “no effect”.
As to `CC(C(=O)OCCCCO[N+](=O)[O-])c1ccc(-c2ccccc2)c(F)c1` (stereo not shown) [flurbiprofen nitroxybutylester], the anti-inflammatory activity entry in series [1] is “comparable to that of their parent NSAIDs”. Besides, the gastric injury entry in series [2] is “markedly less gastric injury”. The mitochondrial damage result in series [4] (in vivo) was “associated with mitochondrial damage in vivo”. Besides, the “macroscopic damage in the small intestine” value in series [4] (versus flurbiprofen) was “significantly less macroscopic damage”.
Turning to `O=[N+]([O-])OCC(CO[N+](=O)[O-])O[N+](=O)[O-]` [glyceryl trinitrate], the “healing … (healing rate)” value in series [3] was “accelerated”. Further, in series [3] (earlier knowledge on the NO donor), the “healing of experimental gastric ulcers” value is given as “significantly accelerated”.
`CC(C(=O)OCCCCO[N+](=O)[O-])c1cccc(C(=O)c2ccccc2)c1` (stereo not shown) [ketoprofen nitroxybutylester]: the anti-inflammatory activity result in series [1] is reported as “comparable to that of their parent NSAIDs”. In addition, in series [2], the gastric injury entry is “markedly less gastric injury”.
Regarding `COc1ccc2cc(CCC(C)=O)ccc2c1` [nabumetone], the “healing … (healing rate)” value in series [3] is on record as “no effect”.
